Data: PubChem BioAssay AID1963978 (Molecular Pharmacology Branch, DTP, NCI, 2024)

Tested on: 616215-338-R-J1-PDC spheroids with HUVEC/MSC, viability
Experiment: Anticancer human tumor 616215-338-R-J1-PDC patient-derived colon adenocarcinoma cell line growth inhibition [PI3K]
Details: for IC50: curve of first compound; for viability, T/C: stronger effect = lower value
Outline: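 Agents were dosed from a top concentration near clinical Cmax (otherwise 10 microM) in half-log decrements, alone or combined with PI3K inhibitors. The spheroids contain tumor cells plus endothelial (HUVEC) and MSC stroma; viability is measured.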

[1] = second compound 0.0316 µM, first compound 0.0316 µM
[2] = second compound 0.0316 µM, first compound 0.1 µM
[3] = second compound 0.0316 µM, first compound 0.316 µM
[4] = second compound 0.0316 µM, first compound 1 µM
[5] = second compound 0.0316 µM, first compound 3.16 µM
[6] = second compound 0.0316 µM, first compound 10 µM
[7] = second compound 0.1 µM, first compound 0.0316 µM
[8] = second compound 0.1 µM, first compound 0.1 µM
[9] = second compound 0.1 µM, first compound 0.316 µM
[10] = second compound 0.1 µM, first compound 1 µM
[11] = second compound 0.1 µM, first compound 3.16 µM
[12] = second compound 0.1 µM, first compound 10 µM
[13] = second compound 0.316 µM, first compound 0.0316 µM
[14] = second compound 0.316 µM, first compound 0.1 µM
[15] = second compound 0.316 µM, first compound 0.316 µM
[16] = second compound 0.316 µM, first compound 1 µM
[17] = second compound 0.316 µM, first compound 3.16 µM
[18] = second compound 0.316 µM, first compound 10 µM
[19] = second compound 1 µM, first compound 0.0316 µM
[20] = second compound 1 µM, first compound 0.1 µM
[21] = second compound 1 µM, first compound 0.316 µM
[22] = second compound 1 µM, first compound 1 µM
[23] = second compound 1 µM, first compound 3.16 µM
[24] = second compound 1 µM, first compound 10 µM
[25] = second compound 3.16 µM, first compound 0.0316 µM
[26] = second compound 3.16 µM, first compound 0.1 µM
[27] = second compound 3.16 µM, first compound 0.316 µM
[28] = second compound 3.16 µM, first compound 1 µM
[29] = second compound 3.16 µM, first compound 3.16 µM
[30] = second compound 3.16 µM, first compound 10 µM
[31] = second compound 10 µM, first compound 0.0316 µM
[32] = second compound 10 µM, first compound 0.1 µM
[33] = second compound 10 µM, first compound 0.316 µM
[34] = second compound 10 µM, first compound 1 µM
[35] = second compound 10 µM, first compound 3.16 µM
[36] = second compound 10 µM, first compound 10 µM
[37] = second compound 0.00316 µM, first compound 0.0316 µM
[38] = second compound 0.00316 µM, first compound 0.1 µM
[39] = second compound 0.00316 µM, first compound 0.316 µM
[40] = second compound 0.00316 µM, first compound 1 µM
[41] = second compound 0.01 µM, first compound 0.0316 µM
[42] = second compound 0.01 µM, first compound 0.1 µM
[43] = second compound 0.01 µM, first compound 0.316 µM
[44] = second compound 0.01 µM, first compound 1 µM
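Further: spheroids exposed to agents for seven days before the viability read.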

Structure (SMILES): CC(Cn1ccc(-c2ccc(C#N)c(Cl)c2)n1)NC(=O)c1cc(C(C)O)[nH]n1 (stereo not drawn) + CC(Nc1ncnc2nc[nH]c12)c1cc2cccc(Cl)c2c(=O)n1-c1ccccc1
- IC50 (second compound 0.0316 µM): > 10 µM
- IC50 (second compound 0.1 µM): > 10 µM
- IC50 (second compound 0.316 µM): > 10 µM
- IC50 (second compound 1 µM): > 10 µM
- IC50 (second compound 3.16 µM): > 10 µM
- IC50 (second compound 10 µM): > 10 µM
- viability, T/C [1]: 92%
- viability, T/C [2]: 99.5%
- viability, T/C [3]: 103%
- viability, T/C [4]: 96.1%
- viability, T/C [5]: 116%
- viability, T/C [6]: 99.5%
- viability, T/C [7]: 93.7%
- viability, T/C [8]: 94.6%
- viability, T/C [9]: 102%
- viability, T/C [10]: 92.9%
- viability, T/C [11]: 95.5%
- viability, T/C [12]: 104%
- viability, T/C [13]: 93.1%
- viability, T/C [14]: 102%
- viability, T/C [15]: 89.1%
- viability, T/C [16]: 101%
- viability, T/C [17]: 102%
- viability, T/C [18]: 93.4%
- viability, T/C [19]: 96%
- viability, T/C [20]: 88.3%
- viability, T/C [21]: 110%
- viability, T/C [22]: 93.7%
- viability, T/C [23]: 110%
- viability, T/C [24]: 95.9%
- viability, T/C [25]: 109%
- viability, T/C [26]: 97.1%
- viability, T/C [27]: 107%
- viability, T/C [28]: 104%
- viability, T/C [29]: 94.8%
- viability, T/C [30]: 92.8%
- viability, T/C [31]: 99.4%
- viability, T/C [32]: 106%
- viability, T/C [33]: 101%
- viability, T/C [34]: 97%
- viability, T/C [35]: 118%
- viability, T/C [36]: 95.5%

Structure (SMILES): CCN1CCN(Cc2ccc(Nc3ncc(F)c(-c4cc(F)c5nc(C)n(C(C)C)c5c4)n3)nc2)CC1 + CC(Nc1ccc2c(c1)OCCn1cc(N3C(=O)OCC3C(F)F)nc1-2)C(N)=O
- IC50 (second compound 0.00316 µM): > 1 µM
- IC50 (second compound 0.01 µM): > 1 µM
- IC50 (second compound 0.0316 µM): > 1 µM
- IC50 (second compound 0.1 µM): > 1 µM
- IC50 (second compound 0.316 µM): > 1 µM
- IC50 (second compound 1 µM): > 1 µM
- viability, T/C (second compound 0.00316 µM, first compound 0.00316 µM): 93.8%
- viability, T/C (second compound 0.00316 µM, first compound 0.01 µM): 100%
- viability, T/C [37]: 96.3%
- viability, T/C [38]: 98.7%
- viability, T/C [39]: 131%
- viability, T/C [40]: 111%
- viability, T/C (second compound 0.01 µM, first compound 0.00316 µM): 94.9%
- viability, T/C (second compound 0.01 µM, first compound 0.01 µM): 102%
- viability, T/C [41]: 98.5%
- viability, T/C [42]: 102%
- viability, T/C [43]: 113%
- viability, T/C [44]: 102%
- viability, T/C (second compound 0.0316 µM, first compound 0.00316 µM): 103%
- viability, T/C (second compound 0.0316 µM, first compound 0.01 µM): 111%
- viability, T/C [1]: 99.8%
- viability, T/C [2]: 107%
- viability, T/C [3]: 112%
- viability, T/C [4]: 96.6%
- viability, T/C (second compound 0.1 µM, first compound 0.00316 µM): 104%
- viability, T/C (second compound 0.1 µM, first compound 0.01 µM): 94.3%
- viability, T/C [7]: 99.3%
- viability, T/C [8]: 108%
- viability, T/C [9]: 107%
- viability, T/C [10]: 74.5%
- viability, T/C (second compound 0.316 µM, first compound 0.00316 µM): 102%
- viability, T/C (second compound 0.316 µM, first compound 0.01 µM): 110%
- viability, T/C [13]: 105%
- viability, T/C [14]: 97.8%
- viability, T/C [15]: 96.1%
- viability, T/C [16]: 57.6%
- viability, T/C (second compound 1 µM, first compound 0.00316 µM): 113%
- viability, T/C (second compound 1 µM, first compound 0.01 µM): 90.9%
- viability, T/C [19]: 84.6%
- viability, T/C [20]: 85.5%
- viability, T/C [21]: 73.7%
- viability, T/C [22]: 49.6%

Structure (SMILES): CNC(=O)c1ccc(N2C(=S)N(c3ccc(C#N)c(C(F)(F)F)c3)C(=O)C2(C)C)cc1F + Cc1nc(NC(=O)N2CCCC2C(N)=O)sc1-c1ccnc(C(C)(C)C(F)(F)F)c1
- IC50 (second compound 0.0316 µM): > 10 µM
- IC50 (second compound 0.1 µM): > 10 µM
- IC50 (second compound 0.316 µM): > 10 µM
- IC50 (second compound 1 µM): > 10 µM
- IC50 (second compound 3.16 µM): > 10 µM
- IC50 (second compound 10 µM): > 10 µM
- viability, T/C [1]: 97.6%
- viability, T/C [2]: 95.1%
- viability, T/C [3]: 102%
- viability, T/C [4]: 96.5%
- viability, T/C [5]: 95.6%
- viability, T/C [6]: 93%
- viability, T/C [7]: 116%
- viability, T/C [8]: 86%
- viability, T/C [9]: 94.7%
- viability, T/C [10]: 99%
- viability, T/C [11]: 91.9%
- viability, T/C [12]: 103%
- viability, T/C [13]: 94%
- viability, T/C [14]: 99.9%
- viability, T/C [15]: 109%
- viability, T/C [16]: 97.9%
- viability, T/C [17]: 94.4%
- viability, T/C [18]: 93.1%
- viability, T/C [19]: 101%
- viability, T/C [20]: 96.4%
- viability, T/C [21]: 104%
- viability, T/C [22]: 97.4%
- viability, T/C [23]: 101%
- viability, T/C [24]: 104%
- viability, T/C [25]: 101%
- viability, T/C [26]: 93.8%
- viability, T/C [27]: 91.3%
- viability, T/C [28]: 90%
- viability, T/C [29]: 93.5%
- viability, T/C [30]: 90.6%
- viability, T/C [31]: 90.6%
- viability, T/C [32]: 93.3%
- viability, T/C [33]: 98.4%
- viability, T/C [34]: 98.9%
- viability, T/C [35]: 99.4%
- viability, T/C [36]: 54.6%

Structure (SMILES): Cn1ncc(Cl)c1-c1cc(C(=O)NC(CN)Cc2cccc(F)c2)sc1Cl (stereo not drawn) + CC(Nc1ccc2c(c1)OCCn1cc(N3C(=O)OCC3C(F)F)nc1-2)C(N)=O
- IC50 (second compound 0.00316 µM): 6.62 µM
- IC50 (second compound 0.01 µM): 5.81 µM
- IC50 (second compound 0.0316 µM): 5.89 µM
- IC50 (second compound 0.1 µM): 5.78 µM
- IC50 (second compound 0.316 µM): 6.34 µM
- IC50 (second compound 1 µM): 5.53 µM
- viability, T/C [37]: 101%
- viability, T/C [38]: 82.3%
- viability, T/C [39]: 96.3%
- viability, T/C [40]: 92.7%
- viability, T/C (second compound 0.00316 µM, first compound 3.16 µM): 78.6%
- viability, T/C (second compound 0.00316 µM, first compound 10 µM): 33.6%
- viability, T/C [41]: 87.6%
- viability, T/C [42]: 96%
- viability, T/C [43]: 115%
- viability, T/C [44]: 104%
- viability, T/C (second compound 0.01 µM, first compound 3.16 µM): 68.3%
- viability, T/C (second compound 0.01 µM, first compound 10 µM): 33.6%
- viability, T/C [1]: 104%
- viability, T/C [2]: 92.2%
- viability, T/C [3]: 91.9%
- viability, T/C [4]: 88.8%
- viability, T/C [5]: 73.7%
- viability, T/C [6]: 30.3%
- viability, T/C [7]: 90.2%
- viability, T/C [8]: 108%
- viability, T/C [9]: 95.1%
- viability, T/C [10]: 83.7%
- viability, T/C [11]: 73.4%
- viability, T/C [12]: 30%
- viability, T/C [13]: 90.1%
- viability, T/C [14]: 110%
- viability, T/C [15]: 97%
- viability, T/C [16]: 88.3%
- viability, T/C [17]: 71.6%
- viability, T/C [18]: 36.1%
- viability, T/C [19]: 100%
- viability, T/C [20]: 101%
- viability, T/C [21]: 93.9%
- viability, T/C [22]: 81.1%
- viability, T/C [23]: 74.6%
- viability, T/C [24]: 27.9%
